Series [1] in a line: In vitro metabolic stability, guinea pig liver microsome. The series is classed as in vitro ADME. The conditions noted are these: liver microsomes, 1 mg/mL liver microsome protein, 37° C., NA = essentially not metabolized, read-out: T1/2 in guinea pig liver microsome. How it is done:
(§1) The in vitro metabolic stability of the compounds disclosed herein was determined through incubation of liver microsomes of various species. A proper amount of test compound was added into a liver microsome reaction system (1 mg/mL liver microsome protein, 25 U/mL glucose-6 phosphate dehydrogenase, 1 mM NADP, 6 mM D-glucose 6-phosphate and 5 mM MgCl2), and then the mixture was incubated in a water bath kettle at 37° C. to start the reaction. At each time point, 100 μL of the reaction mixture was added into a centrifuge tube containing 400 μL of internal standard working solution (containing a 200 ng/mL solution of dexamethasone, diclofenac, tolbutamide and labetalol in acetonitrile) precooled at 0° C. so as to terminate the reaction, and the mixture was then centrifuged at 10,000 g for 10 min at 4° C. The supernatant was collected for LC-MS assay so as to obtain the values of in vitro metabolic half-life of the test compounds in liver microsomes of various species.
In general terms: Liver microsomes are vesicles of endoplasmic reticulum, rich in cytochrome P450 enzymes.

The target of series [2] is hP2X3 (human purinergic P2X receptor subtype 3) (Homo sapiens (Human), UniProt P56373). As to the kind of experiment: FLIPR calcium assay, hP2X3 expressed in HEK293 cells. The series is classed as cell-based. The settings on record: read-out: P2X3 IC50.
Series [3] is described as follows: In vitro metabolic stability, rat liver microsome. The series is classed as in vitro ADME. The conditions noted are these: liver microsomes, 1 mg/mL liver microsome protein, 37° C., NA = essentially not metabolized, read-out: T1/2 in rat liver microsome. How it is done: as §1, with “A proper amount of test compound was added into a liver microsome reaction system (1 mg/mL liver microsome protein, 25 U/mL glucose-6 phosphate dehydrogenase, 1 mM NADP, 6 mM D-glucose 6-phosphate and 5 mM MgCl2), and then the mixture was incubated in a water bath kettle at 37° C. to start the reaction.” left out

A short description of series [4]: In vitro cytotoxicity assay, CCK-8 method. The settings on record: human, HepG2 cells. The series is classed as cell-based. An outline of the steps: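 HepG2 cells at 50,000/well, grown to 80–90% confluence, exposed to compound dilutions or DMSO vehicle for 48 h at 37 °C. Viability by CCK-8 (1.5 h, 37 °C), absorbance at 450 nm; CC50 calculated.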
(Tetrazolium assays rely on reduction of a dye to a coloured formazan, in cell work by metabolically active cells.)

The subject of series [5] is Male Dunkin Hartley guinea pigs. The series can be described thus: Citric acid only cough model. It counts as in vivo, guinea pig. Also on record: Mean cough latency: unit not given beside the values. The conditions noted are these: for Number of coughs and cough latency (in words): compared with the blank vehicle or the condition before administration; for inhibition in vivo at 30 mg/kg: Cavia porcellus; for Mean number of coughs: 17.5% citric acid. How it is done: Male Dunkin Hartley guinea pigs (300-350 g) were placed in an animal atomization box, and then the door of the atomization box was closed while the ultrasonic atomizer (Guangdong Yuehua) was turned on. 17.5% citric acid gas was introduced into the atomization box at a maximum atomization rate (about 2 mL/min) for 20 s, and coughs of the animals within 10 min were continuously observed from the time of the start of atomization. During the 10-min observation, coughs of the animals were counted manually, and the number of coughs were judged according to cough postures of the guinea pigs, such as abdominal twitching, mouth opening, and head inclining downward abruptly. The number of coughs during the first 5 min and that during 10 min were recorded, and the cough latency of the guinea pigs, namely the time from the initiation of citric acid induction to the appearance of the first cough, was also recorded.

The test system of series [6] is Male SD rats. The series can be described thus: Two-bottle dysgeusia test (quinine water vs normal water). The series is classed as in vivo, rat. The conditions noted are these: for Ratio of quinine/water intake (in words): compared with the blank vehicle; for Quinine/tap water* 100%: rats, single intraperitoneal injection. The procedure:
All drinking water bottles were removed out 20 h before the start of the formal experiment, and all the animals were deprived of water until the start of the experiment. In the experiment, all the animals were randomly grouped and then subjected to a single intraperitoneal injection of a test compound or a vehicle before water was resupplied. The administration time was determined according to the Tmax of the test compound. Then the animals were placed in separate cages, and two bottles of drinking water (one bottle of normal drinking water and one bottle of 0.3 mM quinine water) were provided.

Series [7] addresses hP2X2/3 (heterodimeric receptors formed by human purinergic P2X receptors subtype 2 and subtype 3) (Homo sapiens (Human), UniProt P56373+Q9UBL9). As to the kind of experiment: FLIPR calcium assay, hP2X2/3 expressed in HEK293 cells (P2X2/3 receptor selectivity). It counts as cell-based. The conditions noted are these: for IC50: HEK293 cells expressing hP2X2/3, agonist BZ-ATP 5 μM, unit inferred.

The nature of series [8]: In vitro metabolic stability, human liver microsome. It counts as in vitro ADME. The conditions noted are these: liver microsomes, 1 mg/mL liver microsome protein, 37° C., NA = essentially not metabolized, read-out: T1/2 in human liver microsome. How it is done: as §1, with “A proper amount of test compound was added into a liver microsome reaction system (1 mg/mL liver microsome protein, 25 U/mL glucose-6 phosphate dehydrogenase, 1 mM NADP, 6 mM D-glucose 6-phosphate and 5 mM MgCl2), and then the mixture was incubated in a water bath kettle at 37° C. to start the reaction.” left out

The mark [9] stands for this setting: 30 mg/kg, read-out: Cough inhibition rate Vs Baseline (%).
Where [10] appears, read: 30 mg/kg, read-out: Cough inhibition rate Vs Vehicle (%).
[11] abbreviates: Table 8, 20 mg/kg, water intake within 15 min, 0.3 mM quinine.
Setting [12] is: before administration (baseline of the group).

Read-outs that look alike come from different tables or passages of the source.

hP2X2/3 (heterodimeric receptors formed by human purinergic P2X receptors subtype 2 and subtype 3), sequence (P56373 whole entry): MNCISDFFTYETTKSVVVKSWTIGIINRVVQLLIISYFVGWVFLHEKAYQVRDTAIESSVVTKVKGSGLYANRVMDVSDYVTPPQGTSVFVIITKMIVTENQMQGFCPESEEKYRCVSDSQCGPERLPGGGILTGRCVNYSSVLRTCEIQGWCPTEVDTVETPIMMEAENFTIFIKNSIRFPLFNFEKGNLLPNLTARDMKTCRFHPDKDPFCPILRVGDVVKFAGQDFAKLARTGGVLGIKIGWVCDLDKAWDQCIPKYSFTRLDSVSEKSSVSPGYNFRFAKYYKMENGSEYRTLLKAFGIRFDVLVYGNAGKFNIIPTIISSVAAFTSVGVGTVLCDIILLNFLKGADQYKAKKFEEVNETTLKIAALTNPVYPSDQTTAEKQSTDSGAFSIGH
hP2X2/3 (heterodimeric receptors formed by human purinergic P2X receptors subtype 2 and subtype 3), sequence (Q9UBL9 whole entry): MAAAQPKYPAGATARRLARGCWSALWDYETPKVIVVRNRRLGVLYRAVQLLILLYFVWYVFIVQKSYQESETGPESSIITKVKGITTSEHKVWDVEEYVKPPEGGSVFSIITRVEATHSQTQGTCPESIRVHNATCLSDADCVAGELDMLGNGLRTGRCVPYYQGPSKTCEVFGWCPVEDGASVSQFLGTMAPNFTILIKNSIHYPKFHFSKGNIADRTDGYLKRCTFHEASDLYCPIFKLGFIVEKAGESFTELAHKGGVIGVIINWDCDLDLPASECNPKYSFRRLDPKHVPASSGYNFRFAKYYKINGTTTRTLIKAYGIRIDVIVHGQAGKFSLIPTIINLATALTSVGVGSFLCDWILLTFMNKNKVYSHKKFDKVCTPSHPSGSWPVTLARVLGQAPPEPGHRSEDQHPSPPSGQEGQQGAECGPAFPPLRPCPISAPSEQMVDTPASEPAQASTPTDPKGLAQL
hP2X3 (human purinergic P2X receptor subtype 3), sequence (P56373 whole entry): as the sequence (P56373 whole entry) above

What is called IC50 is the concentration at which inhibition is half-maximal. One may read the CC50 as the concentration at which the toxic effect on the cells reaches its halfway point. Regarding `COC(=O)N1CCO[C@@H](Cc2c(-c3c(F)cc(NC(C)=O)cc3F)nc3cc(C)ccn23)C1` [Compound 2, methyl (S)-2-((2-(2,6-difluoro-4-acetamidophenyl)-7-methylimidazo[1,2-a]pyridin-3-yl)-methyl)morpholine-4-carboxylate], the half-life is 1.59 h in series [1], 0.872 h in series [3] and 14.9 h in series [8]. Besides, the IC50 was below 0.01 µM in series [2] and above 60 µM in series [7]. This compound returned a CC50 at 48 h in series [4] of 124 µM. In addition, the “Number of coughs and cough latency (in words)” value (from here on “Number … (in words)”) in series [5] (30 mg/kg) was “can effectively reduce the number of coughs and prolong the cough latency”. For the same compound, the inhibition in vivo at 30 mg/kg in series [5] (setting [9]) is 38.7%; in series [5] (setting [10]), 34.2%. For the same compound, the “Ratio of quinine/water intake (in words)” value in series [6] (20 mg/kg) is recorded as “almost unaffected”. The “Quinine/tap water* 100%” value in series [6] (setting [11]) turned out to be 5.49%. Moreover, the Folds of selectivity result in series [7] is given as “A (key: A: folds of selectivity >1000; B: 200< folds of selectivity ≤1000; C: folds of selectivity ≤200)”.

With `CNC(=O)c1cc(F)c(-c2oc3cc(C)ccc3c2C[C@H]2CN(C(=O)OC)CCO2)c(F)c1` [Compound 53, methyl (S)-2-((2-(2,6-difluoro-4-(methylcarbamoyl)phenyl)-6-methylbenzofuran-3-yl)methyl)morpholine-4-carboxylate], in series [2], the IC50 was below 0.01 µM. The “Number … (in words)” value in series [5] (30 mg/kg) is “can effectively reduce the number of coughs and prolong the cough latency”. Further, the inhibition in vivo at 30 mg/kg amounted to 51.7% in series [5] (setting [9]) and 47.7% in series [5] (setting [10]). For the same compound, the “Ratio of quinine/water intake (in words)” value in series [6] (20 mg/kg) was “almost unaffected”. For the same compound, the “Quinine/tap water* 100%” value in series [6] (setting [11]) was 7.65%.

Take `COC(=O)N1CCO[C@@H](Cc2c(-c3c(F)cc(N)cc3F)nc3cc(Cl)ccn23)C1` [Compound 161, methyl (S)-2-((2-(4-amino-2,6-difluorophenyl)-7-chloroimidazo[1,2-a]pyridin-3-yl)methyl)morpholine-4-carboxylate]: the results for the half-maximal inhibitory concentration (IC50) in series [2] and in series [7] were 0.01 to 0.05 µM and above 60 µM, respectively. This compound also showed a CC50 at 48 h in series [4] above 100 µM. Further, in series [5] (30 mg/kg), the “Number … (in words)” value was “can effectively reduce the number of coughs and prolong the cough latency”. Moreover, the inhibition in vivo at 30 mg/kg in series [5] (setting [9]) was 66.2%; in series [5] (setting [10]), 63.5%. For the same compound, the “Ratio of quinine/water intake (in words)” value in series [6] (20 mg/kg) is “almost unaffected”. Moreover, the “Quinine/tap water* 100%” value in series [6] (setting [11]) came out at 5.03%. The Folds of selectivity result in series [7] is “A (key: A: folds of selectivity >1000; B: 200< folds of selectivity ≤1000; C: folds of selectivity ≤200)”.

Take `CC(=O)N1CCO[C@@H](Cc2c(-c3c(F)cc(-n4ccnc4)cc3F)nc3cc(C)ccn23)C1` [Compound 162, (S)-1-(2-((2-(2,6-difluoro-4-(1H-imidazol-1-yl)phenyl)-7-methylimidazo[1,2-a]pyridin-3-yl)methyl)morpholino)ethan-1-one]: the IC50 was below 0.01 µM in series [2] and above 60 µM in series [7]. This compound gave a CC50 at 48 h in series [4] above 100 µM. The “Number … (in words)” value in series [5] (30 mg/kg) was “can effectively reduce the number of coughs and prolong the cough latency”. Also, the inhibition in vivo at 30 mg/kg in series [5] (setting [9]) came out at 46.1%; in series [5] (setting [10]) it was 42.8%. Moreover, the “Ratio of quinine/water intake (in words)” value in series [6] (20 mg/kg) was “almost unaffected”. Also, the “Quinine/tap water* 100%” value in series [6] (setting [11]) turned out to be 6.34%. The Folds of selectivity entry in series [7] was “A (key: A: folds of selectivity >1000; B: 200< folds of selectivity ≤1000; C: folds of selectivity ≤200)”.

Regarding `CCC(=O)c1ccn(-c2cc(F)c(-c3nc4cc(C)ccn4c3C[C@H]3CN(C(=O)OC)CCO3)c(F)c2)n1` [Compound 164, methyl (S)-2-((2-(2,6-difluoro-4-(3-propionyl-1H-pyrazol-1-yl)phenyl)-7-methylimidazo[1,2-a]pyridin-3-yl)methyl) morpholine-4-carboxylate], in series [4], the CC50 at 48 h was above 100 µM. Further, the figures for the inhibition in vivo at 30 mg/kg in series [5] (setting [9]) and in series [5] (setting [10]) were 67.2% and 65.2%, respectively. Further, the “Ratio of quinine/water intake (in words)” value in series [6] (20 mg/kg) is reported as “almost unaffected”. For the same compound, the “Quinine/tap water* 100%” value in series [6] (setting [11]) stood at 6.69%. Also, the Folds of selectivity result in series [7] is “A (key: A: folds of selectivity >1000; B: 200< folds of selectivity ≤1000; C: folds of selectivity ≤200)”. The IC50 in series [7] was above 60 µM.

On to `CC(=O)N1CCO[C@@H](Cc2c(-c3c(F)cc(-c4nnc[nH]4)cc3F)nc3cc(C)ccn23)C1` [Compound 165], for which the IC50 in series [2] was below 0.01 µM; in series [7] it was above 60 µM. Also, in series [4], the CC50 at 48 h was above 100 µM. Also, the “Number … (in words)” value in series [5] (30 mg/kg) was “can effectively reduce the number of coughs and prolong the cough latency”. The inhibition in vivo at 30 mg/kg was 54.5% in series [5] (setting [9]) and 53.6% in series [5] (setting [10]). Further, the “Ratio of quinine/water intake (in words)” value in series [6] (20 mg/kg) is “almost unaffected”. For the same compound, in series [6] (setting [11]), the “Quinine/tap water* 100%” value is on record as 3.90%. In addition, the Folds of selectivity result in series [7] is reported as “A (key: A: folds of selectivity >1000; B: 200< folds of selectivity ≤1000; C: folds of selectivity ≤200)”.

With `CNC(=O)c1cc(F)c(-c2nc3cc(C)ccn3c2C[C@H]2CN(C(=O)OC)CCO2)c(F)c1` [Positive compound 1, methyl (S)-2-((2-(2,6-difluoro-4-(4-methylcarbamoyl)phenyl)-7-methylimidazo[1,2-a]pyridin-3-yl)methyl)morpholine-4-carboxylate, reference compound], the half-life in series [1] was 1.87 h; in series [3] it was 0.89 h; in series [8] it was 24.2 h. For the same compound, in series [4], the CC50 at 48 h is 128 µM. Also, in series [5] (30 mg/kg), the “Cough inhibition rate Vs Baseline (%)” value is given as 47.0%. In addition, the “Cough inhibition rate Vs Vehicle (%)” value in series [5] (30 mg/kg) came out at 42.6%. For the same compound, the Mean cough latency in series [5] (after administration, 30 mg/kg) was 226.75; in series [5] (setting [12]), 80.13. Also, the “Mean number of coughs” value is 9.88 in series [5] (after administration, 30 mg/kg) and 18.63 in series [5] (setting [12]). Also, the Folds of selectivity in series [7] was above 5217.

On to `COc1cc(C(C)C)c(Oc2cnc(N)nc2N)cc1S(N)(=O)=O` [Positive compound 2, reference compound], for which the figures for the half-life in series [1] and in series [3] were 14.9 h and 18.2 h, respectively. The CC50 at 48 h in series [4] was above 200 µM. Moreover, the “Quinine/tap water* 100%” value in series [6] (setting [11]) is given as 59.41%; in series [6] (Table 9, 10 mg/kg), 18.62%; in series [6] (Table 9, 20 mg/kg), 34.99%.

Source of the values: patent publication US20240034729A9, “HETEROCYCLIC COMPOUND, INTERMEDIATE, PREPARATION METHOD THEREFOR AND APPLICATION THEREOF” (WUHAN LL SCIENCE AND TECHNOLOGY DEVELOPMENT CO., LTD., priority 2018, published 2024).
